In patent publication US7012085B2, “1,3 disubstituted pyrrolidines as α-2-adrenoceptor antagonists” (Novartis AG, priority 2000, dated 2006):

How the values were obtained:
[1] = test system: loxapine-induced catalepsy; test: loxapine-induced catalepsy in rats; format: in vivo; details: 0.3-3 mg/kg s.c.
Protocol: Kalkman H. O. et al., Br. J. Pharmacol. 124:1550-1556 (1998)] at doses of about 0.3 to about […] s.c.

[2] = test system: amphetamine induced locomotion; test: amphetamine induced locomotion in rats; format: in vivo
Protocol: The compound or the solvent are administered at t=−30 min.

Row | Structure (SMILES) | inhibition of catalepsy [1] | reduction of locomotion ([2]; rats, 1, 3 and 10 mg/kg s.c.) | reduction of locomotion ([2]; rats, 0.1, 0.3 and 1 mg/kg s.c.)
1 | COc1ccccc1[C@H]1CCN(Cc2ccc3c(c2)OCCO3)C1 [(R)-1-(2,3,-dihydro-benzo-[1,4]dioxin-6-ylmethyl)-3-(2-methoxyphenyl)pyrrolidine] | long lasting, dose-dependent inhibition of catalepsy | dose-dependently reduce locomotion | 
2 | COc1ccccc1[C@H]1CCN(Cc2ccc(=O)n(C(C)C)c2)C1 [(R)-1-isopropyl-5-[3-(2-methoxyphenyl)pyrrolidin-1-ylmethyl]-1H-pyridin-2-one] | long lasting, dose-dependent inhibition of catalepsy |  | dose-dependently reduce locomotion
